Laboratory results: US20050282814A1, “Vasculostatic agents and methods of use thereof” (TargeGen, Inc., priority 2002, published 2005)
Where a name gives a salt, the structure may show the parent alone. Values belong to the molecule of their own block, whether it stands above or below them.

Columns and labels:
[1] = target: T1, human p120γ subunit of PI3K (Homo sapiens, UniProt P48736); experiment: PI3K p120γ enzymatic activity at two concentrations (Upstate Group); assay type: biochemical; conditions: 100% = no inhibition, 0% = complete inhibition; for remaining activity at 0.5 µM: read-out: Percent Control Value at 0.5 μM; for remaining activity at 5 µM: read-out: Percent Control Value at 5 μM
T1 construct: Upstate Group, Charlottesville, Va; (ran the assay under contract)
T1 sequence (P48736 whole entry): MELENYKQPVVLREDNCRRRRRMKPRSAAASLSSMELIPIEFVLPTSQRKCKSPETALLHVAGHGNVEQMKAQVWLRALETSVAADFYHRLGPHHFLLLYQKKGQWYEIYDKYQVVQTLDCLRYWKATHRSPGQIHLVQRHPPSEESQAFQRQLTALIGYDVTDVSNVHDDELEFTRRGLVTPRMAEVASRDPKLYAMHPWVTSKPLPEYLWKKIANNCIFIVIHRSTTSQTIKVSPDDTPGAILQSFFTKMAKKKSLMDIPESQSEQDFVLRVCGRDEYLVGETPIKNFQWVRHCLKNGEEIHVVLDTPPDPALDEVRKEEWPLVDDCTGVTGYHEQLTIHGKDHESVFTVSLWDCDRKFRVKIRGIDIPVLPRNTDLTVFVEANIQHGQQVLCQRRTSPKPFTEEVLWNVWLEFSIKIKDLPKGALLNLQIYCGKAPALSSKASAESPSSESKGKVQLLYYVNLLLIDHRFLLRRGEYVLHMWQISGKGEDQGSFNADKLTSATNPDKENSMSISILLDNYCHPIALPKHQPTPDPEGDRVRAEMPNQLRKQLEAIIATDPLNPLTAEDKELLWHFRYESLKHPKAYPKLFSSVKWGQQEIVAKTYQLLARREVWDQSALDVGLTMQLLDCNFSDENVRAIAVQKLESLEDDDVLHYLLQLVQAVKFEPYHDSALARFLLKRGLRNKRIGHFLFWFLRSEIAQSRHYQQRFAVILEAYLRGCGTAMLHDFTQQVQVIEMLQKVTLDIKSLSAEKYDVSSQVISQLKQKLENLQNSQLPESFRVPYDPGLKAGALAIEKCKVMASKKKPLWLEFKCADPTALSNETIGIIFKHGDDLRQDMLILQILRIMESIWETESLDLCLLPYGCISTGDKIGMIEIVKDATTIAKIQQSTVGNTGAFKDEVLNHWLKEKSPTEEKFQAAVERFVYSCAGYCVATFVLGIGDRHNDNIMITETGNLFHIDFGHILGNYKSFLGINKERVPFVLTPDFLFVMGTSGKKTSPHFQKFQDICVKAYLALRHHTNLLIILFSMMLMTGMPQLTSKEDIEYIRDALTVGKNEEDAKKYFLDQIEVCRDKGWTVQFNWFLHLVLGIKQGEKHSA
Method: The ability of compounds to inhibit the activity of PI3K kinase was determined using biochemical assays. In a first assay, compounds were tested at two concentrations (0.5 and 5 μM) for their ability to inhibit enzymatic activity of the human p120γ subunit of PI3K (the assay being performed under contract by Upstate Group, Charlottesville, Va.).

[2] = target: T2, recombinant human c-Src (Homo sapiens, UniProt P12931); experiment: c-Src kinase inhibition, KinaseGlo residual ATP; assay type: biochemical; conditions: ATP 3 μM, 90 minutes at room temperature
T2 construct: purchased Panvera, Madison Wis
T2 sequence (P12931 whole entry): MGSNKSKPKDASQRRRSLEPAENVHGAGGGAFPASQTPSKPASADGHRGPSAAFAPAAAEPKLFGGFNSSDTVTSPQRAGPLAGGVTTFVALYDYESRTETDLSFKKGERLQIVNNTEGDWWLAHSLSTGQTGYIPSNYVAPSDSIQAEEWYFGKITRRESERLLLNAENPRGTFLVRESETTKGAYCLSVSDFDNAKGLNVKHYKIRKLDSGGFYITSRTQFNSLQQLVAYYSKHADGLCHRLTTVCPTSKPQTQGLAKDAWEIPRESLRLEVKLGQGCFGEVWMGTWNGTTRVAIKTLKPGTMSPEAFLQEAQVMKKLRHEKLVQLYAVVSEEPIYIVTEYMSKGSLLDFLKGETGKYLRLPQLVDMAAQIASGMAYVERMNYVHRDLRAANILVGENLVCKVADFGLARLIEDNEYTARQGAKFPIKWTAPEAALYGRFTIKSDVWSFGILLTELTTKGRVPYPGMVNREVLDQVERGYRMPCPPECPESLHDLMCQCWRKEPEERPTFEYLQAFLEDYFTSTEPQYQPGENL
From the text: (§1) The ability of compounds to inhibit the activity of two Src-family kinases (c-Src and Yes) was directly tested.

[3] = target: T3, recombinant human Yes (Homo sapiens, UniProt P07947); experiment: Yes kinase inhibition, KinaseGlo residual ATP; assay type: biochemical; conditions: ATP 3 μM, 90 minutes at room temperature
T3 construct: purchased Panvera, Madison Wis
T3 sequence (P07947 whole entry): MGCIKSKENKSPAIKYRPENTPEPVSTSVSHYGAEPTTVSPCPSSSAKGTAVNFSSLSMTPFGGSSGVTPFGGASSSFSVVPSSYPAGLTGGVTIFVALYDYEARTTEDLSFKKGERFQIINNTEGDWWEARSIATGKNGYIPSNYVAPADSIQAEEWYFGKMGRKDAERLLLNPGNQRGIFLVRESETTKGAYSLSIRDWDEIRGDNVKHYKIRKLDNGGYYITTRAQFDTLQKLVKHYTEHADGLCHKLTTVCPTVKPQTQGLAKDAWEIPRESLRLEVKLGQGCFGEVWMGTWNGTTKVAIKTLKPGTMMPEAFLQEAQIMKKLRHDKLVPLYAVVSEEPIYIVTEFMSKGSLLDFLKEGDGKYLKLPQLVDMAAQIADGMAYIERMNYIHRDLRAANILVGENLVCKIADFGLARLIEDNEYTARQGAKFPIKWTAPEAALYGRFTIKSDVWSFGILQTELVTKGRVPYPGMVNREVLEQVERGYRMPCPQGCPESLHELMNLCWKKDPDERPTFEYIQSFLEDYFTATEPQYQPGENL
From the text: as §1

[4] = target: recombinant phosphatidylinositol 3-kinase-p120γ (PI3K) (Homo sapiens, UniProt P48736); experiment: biochemical
Chain of recombinant phosphatidylinositol 3-kinase-p120γ (PI3K) (P48736 whole entry): as the sequence (P48736 whole entry) above

[5] = test system: cerebral stroke; experiment: Cerebral stroke model, permanent middle cerebral artery occlusion; assay type: in vivo, mice; conditions: 1 mg/kg BW IV 60 min after ligation, 24 hours; for % Infarct reduction: vs vehicle
Method: A rodent model of cerebral stroke, in which the middle cerebral artery is permanently occluded, was used to determine whether test agents reduced infarct size at 24 hours.
Cerebral strokes were created in mice by permanent ligation of the middle cerebral artery using a cauterizing tool, followed 60 min later by IV injection of either vehicle alone (50% PEG400 in water) or test agents (at 1 mg/kg BW). Twenty four hours later, brains were sectioned and stained using triphenyltetrazolium chloride to delineate viable from infarcted tissue. Photographic images were then analyzed using morphometric software to calculate infarct area.

[6] = test system: VEGF-induced edema; experiment: Miles assay, VEGF-induced edema; assay type: in vivo, Sprague-Dawley rats; conditions: VEGF 200 ng/site, 45 min, vehicle 12
Method: A rodent model of vascular edema, the Miles assay, was used to screen compounds for their ability to inhibit VEGF-induced edema.
Sprague-Dawley rats were first injected IV with vehicle alone or test agent, followed by IV injection of Evans blue dye, followed by intradermal injections of saline and VEGF (200 ng/injection site) along both shaved flanks. After 45 min, intradermal injection sites were photographed and then scored by a blinded observer for extravasation of Evans blue dye into the dermis (dermal bluing) according to a 4 point scoring system (3=maximal bluing, ≧75% of response in vehicle-treated animals; 2=medium bluing, >25% but <75% of vehicle-treated animals; 1=minimal bluing, ≦25% of vehicle-treated animals; 0=bluing equivalent to saline injection sites on same animal). Individual scores for 4 injection sites (from 2 separate animals) were summed and are shown as a scale of 0-12, with a lower score indicating the greater anti-edema activity; note that all vehicle-treated groups score a value of 12, based on the scoring system outlined above.

[7] = test system: acute myocardial infarct; experiment: Rat acute myocardial infarct model (60 min LAD occlusion, reperfusion); assay type: in vivo, Sprague-Dawley rats; conditions: 1.0 mg/kg IV at 90 min post-reperfusion; 24 hr; vs vehicle
Method: A rodent model of acute myocardial infarct, in which the proximal left anterior descending coronary artery (LAD) is occluded for 60 min followed by reperfusion, was used to determine whether test agents reduced infarct size at 24 hours.
Myocardial infarcts were created in Sprague-Dawley rats (200-300 g body weight) by a 60 min occlusion of the LAD followed by LAD reperfusion. At 90 min post-reperfusion, either vehicle alone or test agents were injected IV. At 24 hr post-treatment, the ischemic zone (area at-risk, AAR) was delineated by re-ligation of the LAD followed by IV injection of alkali blue dye, after which hearts were sectioned along the short axis and stained using triphenyltetrazolium chloride to delineate viable from infarcted myocardium. Photographic images were then analyzed using morphometric software to calculate infarct area as a percent of the at-risk area.
The following studies were performed as described above, except that the timing of 3-[2,4-diamino-6-(3-hydroxyphenyl)pteridin-7-yl] phenol dihydrochloride salt administration (at 0.1 mg/kg) was varied. In one group, 3-[2,4-diamino-6-(3-hydroxyphenyl)pteridin-7-yl] phenol dihydrochloride salt was administered at both 60 and 240 min post-occlusion.
In a porcine MI model (90 min of LAD occlusion followed by complete reperfusion), a single 0.3 mg/kg IV bolus delivered 30 min post-reperfusion reduced infarct size by […] vs. controls (40% vs. 56%, N=12-13, P=0.03).

- remaining activity at 0.5 µM [1]: 101%
- remaining activity at 5 µM [1]: 90%
SMILES: Nc1cncc2nc(-c3cccc(O)c3)c(-c3cccc(O)c3)nc12 [2,3-Bis(3-hydroxyphenyl)-pyrido[3,4-b]pyrazin-8-ylamine hydrochloride salt]

- IC50 [2]: 1800 nM
- IC50 [3]: 900 nM
SMILES: Oc1nc(O)c2nc(-c3ccc(O)c(O)c3)c(-c3ccc(O)c(O)c3)nc2n1 [6,7-bis(3,4-dihydroxyphenyl)pteridine-2,4-diol]

SMILES: Nc1ncnc2nc(-c3ccc(O)c(O)c3)c(-c3ccc(O)c(O)c3)nc12 [4-[4-amino-6-(3,4-dihydroxyphenyl)pteridin-7-yl]benzene-1,2-diol methanesulfonate salt]
- IC50 [2]: 800 nM

SMILES: Nc1nc(N)c2nc(-c3ccc(O)c(O)c3)c(-c3ccc(O)c(O)c3)nc2n1 [6,7-bis(3,4-dihydroxyphenyl)-pteridine-2,4-diamine]
- remaining activity at 0.5 µM [1]: 66%
- remaining activity at 5 µM [1]: 12%
- IC50 [4]: 273 nM

- IC50 [2]: 1600 nM
- IC50 [3]: 1000 nM
SMILES: Nc1cncc2nc(-c3ccc(O)c(O)c3)c(-c3ccc(O)c(O)c3)nc12 [2,3-Bis(3,4-dihydroxyphenyl)-pyrido[3,4-b]pyrazin-8-ylamine hydrochloride salt]

SMILES: Nc1ncnc2nc(-c3ccccn3)c(-c3ccccn3)nc12 [6,7-Di-pyridin-2-yl-pteridin-4-ylamine]
- % Infarct reduction [5]: Not significant

SMILES: Cl.Nc1ncnc2nc(-c3ccc(O)c(O)c3)c(-c3ccc(O)c(O)c3)nc12 [4-[4-amino-6-(3,4-dihydroxyphenyl)pteridin-7-yl]benzene-1,2-diol hydrochloride salt]
- Score (scale of 0-12) ([6]; 0.01 mg/kg IV): 6
- Score (scale of 0-12) ([6]; 0.1 mg/kg IV): 3
- Score (scale of 0-12) ([6]; 1 mg/kg IV): 5
- IC50 [2]: 1300 nM

SMILES: Nc1ccc2nc(-c3ccc(O)c(O)c3)c(-c3ccc(O)c(O)c3)nc2n1 [compound C, 2,3-Bis(3,4-dihydroxyphenyl)-pyrido[2,3-b]pyrazin-6-ylamine dihydrochloride salt]
- IC50 [2]: 1300 nM
- IC50 [3]: 756 nM

SMILES: Nc1ncnc2nc(-c3ccc(O)c(O)c3)c(-c3ccc(O)c(O)c3)nc12 [4-[4-amino-6-(3,4-dihydroxyphenyl)pteridin-7-yl]benzene-1,2-diol]
- IC50 [4]: 968 nM

SMILES: Nc1ncnc2nc(-c3cccc(O)c3)c(-c3cccc(O)c3)nc12 [6,7-bis(3-hydroxyphenyl)-pteridin-4-ylamine hydrochloride salt]
- IC50 [2]: 10000 nM
- IC50 [3]: 6300 nM

SMILES: CN(C)S(=O)(=O)c1ccc2c(c1)/C(=C/c1cc3c([nH]1)CCCC3)C(=O)N2 [SU6656, reference compound]
- % Infarct reduction [5]: Not significant

- IC50 [2]: 12000 nM
- IC50 [3]: 6800 nM
SMILES: Nc1nnc2cc(-c3cccc(O)c3)ccc2n1 [3-(3-Amino-benzo[1,2,4]triazin-7-yl)-phenol]

- IC50 [2]: 9200 nM
- IC50 [3]: 7000 nM
SMILES: Nc1nnc2cc(-c3ccccc3C(F)(F)F)ccc2n1 [7-(2-Trifluoromethyl-phenyl)-benzo[1,2,4]triazin-3-ylamine]

SMILES: Nc1ncnc2nc(-c3cccc(O)c3)c(-c3cccc(O)c3)nc12 [6,7-Bis(3-hydroxyphenyl)-pteridine-4-ylamine hydrobromide salt]
- IC50 [2]: 8800 nM

- IC50 [2]: 900 nM
- IC50 [3]: 9300 nM
SMILES: Nc1nnc2cc(-c3cccc4ccccc34)ccc2n1 [7-Naphthalen-1-yl-benzo[1,2,4]triazin-3-ylamine]

SMILES: Nc1nc(N)c2nc(CNCc3ccc4ccccc4c3)cnc2n1 [6-{[(Naphthalen-2-ylmethyl)-amino]-methyl-pteridine-2,4-diamine]
- Score (scale of 0-12) ([6]; 0.1 mg/kg IV): 4

SMILES: Oc1ccc(CNc2ncnc3ncc(-c4ccccc4)nc23)cc1O
- IC50 [2]: 420 nM

- remaining activity at 0.5 µM [1]: 101%
- remaining activity at 5 µM [1]: 81%
SMILES: Nc1nc(N)c2nc(-c3ccccc3)c(-c3ccccc3)nc2n1 [compound B, 6,7-diphenyl-pteridine-2,4-diamine]

SMILES: Cc1ccc(-c2nn(C(C)(C)C)c3ncnc(N)c23)cc1 [PP1, reference compound]
- Infarct area in mm^3 (mean ± SEM) [5]: 35.4 ± 6.4 mm^3
- % Infarct reduction [5]: Not significant

- remaining activity at 0.5 µM [1]: 101%
- remaining activity at 5 µM [1]: 94%
SMILES: Nc1cncc2nc(-c3ccc(O)cc3)c(-c3ccc(O)cc3)nc12 [2,3-Bis(4-hydroxyphenyl)-pyrido[3,4-b]pyrazin-8-ylamine]

SMILES: Nc1ncnc2nc(-c3ccc(O)cc3)c(-c3ccc(O)cc3)nc12 [6,7-bis(4-hydroxyphenyl)-pteridin-4-ylamine]
- remaining activity at 0.5 µM [1]: 102%
- remaining activity at 5 µM [1]: 85%

- remaining activity at 0.5 µM [1]: 102%
- remaining activity at 5 µM [1]: 99%
- IC50 [4]: 48000 nM
SMILES: Nc1nc(O)c2nc(-c3cccc(O)c3)c(-c3cccc(O)c3)nc2n1 [2-Amino-6,7-bis-(3-hydroxy-phenyl)-pteridin-4-ol]

- IC50 [2]: 337 nM
- IC50 [3]: 303 nM
SMILES: O=C(Nc1ccccc1-c1cc2ccccc2[nH]1)c1ccc(O)c(O)c1 [3,4-Dihydroxy-N-(2-(1H-indol-2-yl)-phenyl)-benzamide]

- remaining activity at 0.5 µM [1]: 94%
- remaining activity at 5 µM [1]: 46%
SMILES: Nc1nc(N)c2nc(-c3ccc(O)cc3)c(-c3ccc(O)cc3)nc2n1 [6,7-Bis(4-hydroxyphenyl)-pteridine-2,4-diamine]

SMILES: Nc1nc(N)c2nc(-c3ccc(O)c(O)c3)c(-c3ccc(O)c(O)c3)nc2n1 [6,7-bis(3,4-dihydroxyphenyl)-pteridine-2,4-diamine dihydrochloride salt]
- IC50 [2]: 2600 nM
- IC50 [3]: 1100 nM

SMILES: Nc1ncnc2nc(-c3cccc(O)c3)c(-c3cccc(O)c3)nc12 [6,7-bis(3-hydroxyphenyl)-pteridin-4-ylamine]
- remaining activity at 0.5 µM [1]: 97%
- remaining activity at 5 µM [1]: 71%
- IC50 [4]: 3900 nM

- IC50 [2]: 294 nM
SMILES: Cc1cccc(C)c1-c1cc(C)c2nc(Nc3ccccc3)nnc2c1 [[7-(2,6-Dimethyl-phenyl)-5-methyl-benzo[1,2,4]triazin-3-yl]-phenyl-amine]

SMILES: O=C(Nc1ccccc1-c1cc2ccccc2[nH]1)c1cccnc1C(=O)O [3-[2-(1H-Indol-2-yl)-phenyicarbamoyl]-pyridine-2-carboxylic acid]
- Score (scale of 0-12) ([6]; 0.5 mg/kg IV): 5

SMILES: Cl.Cl.Nc1nc(N)c2nc(-c3cccc(O)c3)c(-c3cccc(O)c3)nc2n1
- % Infarct reduction [7]: Not significant

- IC50 [2]: 317 nM
SMILES: Oc1ccc(CCNc2ncnc3ncc(-c4ccccc4)nc23)cc1O [4-[2-(6-Phenyl-pteridin-4-ylamino)-ethyl]benzene-1,2-diol]

- IC50 [2]: 27600 nM
- IC50 [3]: 3800 nM
SMILES: Nc1ncc2nc(-c3cccc(O)c3)c(-c3cccc(O)c3)nc2n1 [6,7-bis(3-hydroxyphenyl)-pteridine-2-amine]
